Measured values reported in US9434711B2 (Janssen Pharmaceutica, NV, priority 2007, dated 2016).

Molecular target: canine TRPM8 (Canis lupus familiaris, UniProt Q1A7N1)
Experiment: In Vitro Canine TRPM8 Functional Assay (Ca2+ fluorescence, icilin activation)
Format: cell-based
Details: for IC50: HEK293 cells stably expressing canine TRPM8, icilin activation, eight-point dose-response, read-out: IC50; for inhibition at 0.2 µM: compound at 0.2 μM, canine TRPM8, icilin activation, read-out: % Inh @ 0.2
Procedure, shortened: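 Eight-point dose-response curves, each point averaging quadruplicate wells, gave EC50 or IC50. Canine TRPM8-expressing HEK293 cells, dye-loaded (Calcium 3), were pre-exposed 5 min to compound, then challenged with icilin at roughly EC80; intracellular Ca2+ read by FLIPR or FDSS fluorescence.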

Chain of canine TRPM8 (Q1A7N1 1-1104): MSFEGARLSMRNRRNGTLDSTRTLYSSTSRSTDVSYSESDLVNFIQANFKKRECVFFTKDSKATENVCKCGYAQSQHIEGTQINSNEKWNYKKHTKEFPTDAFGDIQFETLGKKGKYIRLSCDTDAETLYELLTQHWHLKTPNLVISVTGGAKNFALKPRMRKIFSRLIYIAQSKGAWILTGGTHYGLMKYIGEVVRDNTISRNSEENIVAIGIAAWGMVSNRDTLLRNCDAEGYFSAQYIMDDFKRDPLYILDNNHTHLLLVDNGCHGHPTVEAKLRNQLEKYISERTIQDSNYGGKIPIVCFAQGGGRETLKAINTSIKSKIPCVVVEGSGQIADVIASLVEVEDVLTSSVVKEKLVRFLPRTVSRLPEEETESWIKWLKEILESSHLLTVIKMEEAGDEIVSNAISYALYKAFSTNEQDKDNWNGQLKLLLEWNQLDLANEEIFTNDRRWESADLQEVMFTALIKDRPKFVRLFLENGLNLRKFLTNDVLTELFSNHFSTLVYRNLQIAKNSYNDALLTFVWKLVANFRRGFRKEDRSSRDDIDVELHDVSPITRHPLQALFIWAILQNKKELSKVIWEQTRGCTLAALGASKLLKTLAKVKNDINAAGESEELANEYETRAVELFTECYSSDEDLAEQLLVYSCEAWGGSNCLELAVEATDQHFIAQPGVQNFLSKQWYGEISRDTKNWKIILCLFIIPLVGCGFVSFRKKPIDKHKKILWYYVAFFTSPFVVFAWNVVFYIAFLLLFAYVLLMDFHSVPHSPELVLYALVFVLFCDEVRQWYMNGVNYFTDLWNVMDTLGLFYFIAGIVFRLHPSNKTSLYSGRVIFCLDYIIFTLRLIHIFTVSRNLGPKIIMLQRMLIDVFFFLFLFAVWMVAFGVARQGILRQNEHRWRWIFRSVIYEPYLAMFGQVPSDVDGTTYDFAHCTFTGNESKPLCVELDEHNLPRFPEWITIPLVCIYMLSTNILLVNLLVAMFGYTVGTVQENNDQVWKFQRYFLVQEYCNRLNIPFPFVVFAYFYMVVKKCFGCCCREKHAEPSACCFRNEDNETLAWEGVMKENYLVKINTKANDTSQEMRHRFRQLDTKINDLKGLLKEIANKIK

`Cc1c(N(Cc2ccc(OC(F)(F)F)cc2)S(=O)(=O)c2ccc(-n3ccnc3CN(C)C)cc2)sc2ccccc12` [Compound 701, 4-(2-Dimethylaminomethyl-imidazol-1-yl)-N-(3-methyl-benzo[b]thiophen-2-yl)-N-(4-trifluoromethoxy-benzyl)-benzenesulfonamide] was tested, and the IC50 was 32.5 nM and the inhibition at 0.2 µM was 95%.
Molecule `O=S(=O)(CC(F)(F)F)N(Cc1ccc(F)c(C(F)(F)F)c1)c1sc2ccccc2c1Br` [Compound 702, N-(3-Bromo-benzo[b]thiophen-2-yl)-N-(4-fluoro-3-trifluoromethyl-benzyl)-2,2,2-trifluoro-ethanesulfonamide] has an IC50 of 23 nM and an inhibition at 0.2 µM of 99%.
In the case of `O=S(=O)(CC(F)(F)F)N(Cc1ccc(F)c(C(F)(F)F)c1)c1sc2ccccc2c1Cl` [Compound 703, N-(3-Chloro-benzo[b]thiophen-2-yl)-N-(4-fluoro-3-trifluoromethyl-benzyl)-2,2,2-trifluoro-ethanesulfonamide], the IC50 is reported as 51 nM and the inhibition at 0.2 µM is reported as 80%.
In the case of `O=S(=O)(CC(F)(F)F)N(Cc1ccc(F)c(C(F)(F)F)c1)c1sc2ccccc2c1CO` [Compound 704, N-(3-Hydroxymethyl-benzo[b]thiophen-2-yl)-N-(4-fluoro-3-trifluoromethyl-benzyl)-2,2,2-trifluoro-ethanesulfonamide], the inhibition at 0.2 µM is reported as 102%.
Molecule `CNS(=O)(=O)N(Cc1ccc(F)c(C(F)(F)F)c1)c1sc2ccccc2c1Br` [Compound 705, N-(3-Bromo-benzo[b]thiophen-2-yl)-N-(4-fluoro-3-trifluoromethyl-benzyl)-N′-methyl-sulfamide] has an IC50 of 19 nM and an inhibition at 0.2 µM of 101%.
For `O=c1[nH]c(-c2ccc(S(=O)(=O)N(CCC3CC3)c3sc4ccccc4c3Br)cc2)ns1` [Compound 706, N-(3-Bromo-benzo[b]thiophen-2-yl)-N-(cyclopropyl-ethyl)-4-(5-oxo-4,5-dihydro-[1,2,4]thiadiazol-3-yl)-benzenesulfonamide], the IC50 was 14 nM and the inhibition at 0.2 µM was 102%.
For `O=C(O)c1ccc(S(=O)(=O)N(CCCCC(F)(F)F)c2sc3ccccc3c2Br)c(F)c1` [Compound 707, N-(3-Bromo-benzo[b]thiophen-2-yl)-N-(5,5,5-trifluoro-pentyl)-2-fluoro-4-carboxy-benzenesulfonamide], the IC50 was 3 nM and the inhibition at 0.2 µM was 102%.
`O=c1[nH]c(-c2ccc(S(=O)(=O)N(CCC(F)(F)F)c3sc4ccccc4c3Br)cc2)ns1` [Compound 708, N-(3-Bromo-benzo[b]thiophen-2-yl)-N-(3,3,3-trifluoro-propyl)-4-(5-oxo-4,5-dihydro-[1,2,4]thiadiazol-3-yl)-benzenesulfonamide] showed an IC50 of 13 nM and an inhibition at 0.2 µM of 102%.
In the case of `O=C(O)c1ccc(S(=O)(=O)N(CCC2CC2)c2sc3ccccc3c2Br)c(F)c1` [Compound 709, N-(3-Bromo-benzo[b]thiophen-2-yl)-N-(2-cyclopropyl-ethyl)-2-fluoro-4-carboxy-benzenesulfonamide], the IC50 is reported as 6 nM and the inhibition at 0.2 µM is reported as 102%.
`O=C(O)c1ccc(S(=O)(=O)N(CCC(F)(F)F)c2sc3ccccc3c2Br)c(F)c1` [Compound 710, N-(3-Bromo-benzo[b]thiophen-2-yl)-N-(3,3,3-trifluoro-propyl)-2-fluoro-4-carboxy-benzenesulfonamide] was tested, and the IC50 was 7 nM and the inhibition at 0.2 µM was 102%.
In the case of `O=C(O)c1ccc(S(=O)(=O)N(Cc2ccc(F)c(C(F)(F)F)c2)c2sc3ccccc3c2Br)c(F)c1` [Compound 711, N-(3-Bromo-benzo[b]thiophen-2-yl)-N-(4-fluoro-3-trifluoromethyl-benzyl)-2-fluoro-4-carboxy-benzenesulfonamide], the IC50 is reported as 2 nM and the inhibition at 0.2 µM is reported as 102%.
Molecule `O=c1[nH]c(-c2ccc(S(=O)(=O)N(CCCCC(F)(F)F)c3sc4ccccc4c3Br)cc2)ns1` [Compound 712, N-(3-Bromo-benzo[b]thiophen-2-yl)-N-(5,5,5-trifluoro-pentyl)-4-(5-oxo-4,5-dihydro-[1,2,4]thiadiazol-3-yl)-benzenesulfonamide] has an IC50 of 4 nM and an inhibition at 0.2 µM of 102%.
`CS(=O)(=O)Nc1cccc(S(=O)(=O)N(CCC(F)(F)F)c2cc3ccccc3s2)c1` [Compound 713, N-(Benzo[b]thiophen-2-yl)-3-methanesulfonylamino-N-(3,3,3-trifluoro-propyl)-benzenesulfonamide] showed an inhibition at 0.2 µM of 47%.
In the case of `CS(=O)(=O)Nc1cccc(S(=O)(=O)N(CCC(F)(F)F)c2sc3ccccc3c2Cl)c1` [Compound 714, N-(3-Chloro-benzo[b]thiophen-2-yl)-3-methanesulfonylamino-N-(3,3,3-trifluoro-propyl)-benzenesulfonamide], the IC50 is reported as 29 nM and the inhibition at 0.2 µM is reported as 96%.
Work on `CS(=O)(=O)Nc1cccc(S(=O)(=O)N(CCC(F)(F)F)c2sc3ccccc3c2Br)c1` [Compound 715, N-(3-Bromo-benzo[b]thiophen-2-yl)-3-methanesulfonylamino-N-(3,3,3-trifluoro-propyl)-benzenesulfonamide] yielded an IC50 of 24 nM and an inhibition at 0.2 µM of 101%.
Work on `CS(=O)(=O)Nc1ccc(S(=O)(=O)N(CCC2CC2)c2sc3ccccc3c2Cl)cc1` [Compound 716, N-(3-Chloro-benzo[b]thiophen-2-yl)-N-(2-cyclopropyl-ethyl)-4-methanesulfonylamino-benzenesulfonamide] yielded an IC50 of 9 nM and an inhibition at 0.2 µM of 101%.
Molecule `CS(=O)(=O)Nc1ccc(S(=O)(=O)N(CCC2CC2)c2sc3ccccc3c2Br)cc1` [Compound 717, N-(3-Bromo-benzo[b]thiophen-2-yl)-N-(2-cyclopropyl-ethyl)-4-methanesulfonylamino-benzenesulfonamide] has an IC50 of 5 nM and an inhibition at 0.2 µM of 102%.
Work on `O=S(=O)(Nc1ccc(S(=O)(=O)N(CCC2CC2)c2sc3ccccc3c2Cl)cc1)C1CC1` [Compound 718, N-(3-Chloro-benzo[b]thiophen-2-yl)-4-cyclopropanesulfonylamino-N-(2-cyclopropyl-ethyl)-benzenesulfonamide] yielded an IC50 of 39 nM and an inhibition at 0.2 µM of 96%.
`O=S(=O)(Nc1ccc(S(=O)(=O)N(CCC2CC2)c2sc3ccccc3c2Br)cc1)C1CC1` [Compound 719, N-(3-Bromo-benzo[b]thiophen-2-yl)-4-cyclopropanesulfonylamino-N-(2-cyclopropyl-ethyl)-benzenesulfonamide] gave an IC50 of 23 nM and an inhibition at 0.2 µM of 100%.
Molecule `Cc1c(N(CCCCC(F)(F)F)S(=O)(=O)c2nc3ccccc3[nH]2)sc2ccccc12` [Compound 720, N-(3-Methyl-benzo[b]thiophen-2-yl)-N-(5,5,5-trifluoro-pentyl)-1H-benzimidazole-2-sulfonamide] has an inhibition at 0.2 µM of 52%.
In the case of `Cc1c(N(CCCCC(F)(F)F)S(=O)(=O)c2cccc3nccnc23)sc2ccccc12` [Compound 721, N-(3-Methyl-benzo[b]thiophen-2-yl)-N-(5,5,5-trifluoro-pentyl)-quinoxalin-5-yl-sulfonamide], the IC50 is reported as 4.2 nM and the inhibition at 0.2 µM is reported as 102%.
For `Cc1c(N(Cc2ccc(F)c(C(F)(F)F)c2)S(=O)(=O)c2nc3ccccc3n2C)sc2ccccc12` [Compound 722, N-(3-Methyl-benzo[b]thiophen-2-yl)-N-(4-fluoro-3-trifluoromethyl-benzyl)-1-methyl-1H-benzimidazole-2-sulfonamide], the inhibition at 0.2 µM was 28%.
For `Cc1c(N(Cc2ccc(F)c(C(F)(F)F)c2)S(=O)(=O)c2cccc3nccnc23)sc2ccccc12` [Compound 723, N-(3-Methyl-benzo[b]thiophen-2-yl)-N-(4-fluoro-3-trifluoromethyl-benzyl)-quinoxalin-5-yl-sulfonamide], the IC50 was 18 nM and the inhibition at 0.2 µM was 102%.
